The test system of test [1] is alisertib-induced senescent A549, Hep1 and MM231 cells. Nature of the test: Colony formation with IgG1-cona or IgA-cona-dim DR5 agonist antibodies. It is filed as cell-based. Conditions: side-by-side IgG1 and IgA-cona-dim forms of conatumumab. How it is done:
(§1) FIG. 10: Colony formation in proliferating and alisertib-induced senescent A549 (A), Hep1 (B) and MM231 (C) cells with IgG1-cona or IgA-cona-dim DR5 agonist antibodies. Colony formation in proliferating and alisertib-induced senescent A549 cells treated with the low dose of 0.125 μg/ml IgA-cona-dim, 0.25 μM NEO2734 and 10 μM Z-VAD-FMK (D). Colony formation using low dose 0.25 μM of NEO2734 and 0.125 μg/ml IgA-cona-dim A549 cells made senescent by one-week treatment with 1 μM barasertib, 0.5 μM PF-06873600, 100 nM doxorubicin, 50 nM CFI-400945, 2 μM Etoposide or 1 μM TAS-119 (E).
Antibodies were generated by expression of SEQ 1 and SEQ 3 (IgG1-cona), SEQ 2 and SEQ 3 (IgA-cona), or SEQ 2, SEQ 3 and SEQ 4 (IgA-cona-dim) as described (Beyer et al., 2009. J Immunol Methods 346: 26-37), by employing the nucleotide sequences SEQ 5 and SEQ 6 (IgG1-cona), SEQ 6 and SEQ 7 (IgA-cona), or SEQ 6, SEQ 7 and SEQ 8 (IgA-cona-dim). SEQ 4 depicts a sequence of an immunoglobulin J chain, which links two or more IgA monomer units.

For test [2], the system named is proliferating and senescent A549 cells. As to the kind of experiment: Colony formation with low dose IgA-cona-dim, NEO2734 and Z-VAD-FMK. Conditions: 10 μM Z-VAD-FMK; alisertib-induced senescent A549. The test is classed as cell-based. How it is done: as §1

Data on 2 compounds can be found in US20240382499A1, “INDUCERS OF SENESCENCE, IN COMBINATION WITH A SELECTIVE DEATH RECEPTOR 5 (DR5) AGONIST, FOR USE IN A METHOD OF TREATING CANCER” (Stichting Het Nederlands Kanker Instituut-Antoni van …, priority 2021, published 2024).

Residues, ends and D or L forms follow the SMILES beside them. *: point of attachment. Cbz = O=C(OCc1ccccc1)*; CH2F = FC*

As for “IgA-cona-dim: dimeric form of IgA-conatumumab, SEQ 2, SEQ 3 and SEQ 4 (J chain)”, in test [1], the “senolytic potency compared with IgG form” value is “most potent DR5 agonist to eliminate senescent cells”.
Consider `COC(=O)C[C@H](NC(=O)[C@H](C)NC(=O)[C@@H](NC(=O)OCc1ccccc1)C(C)C)C(=O)CF` [Z-VAD-FMK] (Cbz-Val-Ala-Asp(OMe)-CH2F), for which the “rescue from IgA-cona-dim plus NEO2734 mediated senolysis” value in test [2] was “fully rescue the cells from senolysis”.
